From US20070026505A1, “Amino acid and metabolite biosynthesis” (priority 2005, published 2007)

What was measured:
C. glutamicum MetA = molecular target: T1, C. glutamicum MetA (Corynebacterium glutamicum, UniProt O68640); assay: MetA (in vitro O-acetyltransferase) activity in crude protein extracts, C. glutamicum MetA; format: biochemical
T1 construct: contain both endogenous and episomal C. glutamicum MetA and MetY genes; expressed in transfected cells; host or cells: C. glutamicum MA-442 (plasmid MB-4135, metA-metY) and MA-449 (MB-4138, metY-metA), both MA-428 / ATCC 13032 derivatives; crude protein extract
T1 sequence (O68640 whole entry): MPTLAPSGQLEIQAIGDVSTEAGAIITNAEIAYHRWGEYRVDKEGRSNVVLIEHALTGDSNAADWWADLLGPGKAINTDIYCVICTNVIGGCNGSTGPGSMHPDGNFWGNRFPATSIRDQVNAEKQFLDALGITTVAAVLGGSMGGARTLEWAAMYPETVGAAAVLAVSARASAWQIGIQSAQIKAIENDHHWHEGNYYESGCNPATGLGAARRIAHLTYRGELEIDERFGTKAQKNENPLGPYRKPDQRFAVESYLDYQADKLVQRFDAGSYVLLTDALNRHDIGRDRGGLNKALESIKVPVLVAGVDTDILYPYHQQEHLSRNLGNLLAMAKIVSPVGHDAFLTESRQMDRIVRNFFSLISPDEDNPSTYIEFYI
Method: MetA activity in C. glutamicum expressing endogenous and episomal metA genes was determined. MetA activity was assayed in crude protein extracts using a protocol described by Kredich and Tomkins (J. Biol. Chem.241(21): 4955-4965, 1966). […] Briefly, 1 μg of protein extract was added to a microtiter plate. Reaction mix (250 μl; 100 mM tris-HCl pH 7.5, 2 mM 5,5′-Dithiobis(2-nitrobenzoic acid) (DTN), 2 mM sodium EDTA, 2 mM acetyl CoA, 2 mM homoserine) was added to each well of the microtiter plate. In the course of the reactions, MetA activity liberates CoA from acetyl-CoA. A disulfide interchange occurs between the CoA and DTN to produce thionitrobenzoic acid. The production of thionitrobenzoic acid is followed spectrophotometrically. Absorbance at 412 nm was measured every 5 minutes over a period of 30 minutes. A well without protein extract was included as a control. […] Inhibitors were added directly to the reaction mix before it was added to the protein extract.
Experiments were performed in the presence and absence of IPTG that induces expression of the plasmid borne MetA and MetY genes.

[1] = test system: O-Acetylhomoserine sulfhydrylase (MetY); settings: grown in the presence of 0.5 mM methionine; cited from earlier work

Row | Compound | MetA activity of MA-442 extracts in presence of S-AM (C. glutamicum MetA; 0.2 mM S-AM) | MetA activity of MA-442 extracts in presence of methionine (C. glutamicum MetA; 5 mM methionine) | reduction in MetY enzyme activity [1]
1 | C[S+](CC[C@H](N)C(=O)[O-])C[C@H]1O[C@@H](n2cnc3c(N)ncnc32)[C@H](O)[C@@H]1O (stereo partly drawn) [S-AM, S-adenosyl methionine] | reduced |  | 
2 | CSCC[C@H](N)C(=O)O [methionine] |  | reduced | 99%
